# According to patent US7927850B2, “Composition containing trehalose synthase and methods of use thereof” (Academia Sinica, priority 2006, dated 2011):
# Test system: PTTS
# Assay: Effects of metal ions and reagents on PTTS activity
# Format: biochemical, Picrophilus torridus
# Settings: 1 mM metal ion or reagent, standard assay conditions
# Description: (§1) The activity of PTTS was assayed by measuring the amount of trehalose produced from maltose. The standard reaction was performed by adding 1.5 μL purified enzyme into 50 μL reaction solution containing 50 mM sodium phosphate (pH 6.0) and 150 mM maltose and incubating in a 45° C. water bath for 25 min. The assay time was under the linear range of enzyme reaction. The reaction was terminated by heating the mixture in boiling water for 15 min. One unit of enzyme activity was defined as the amount of enzyme that catalyzes the formation of 1 μmol of trehalose per min. Kinetic analysis was performed under conditions of pH 6.0 and 45° C. for 5 min in 50 mM sodium phosphate buffer containing substrate (maltose, trehalose, or maltose plus a constant 10 mM of glucose) at various concentrations. The resulting data were analyzed offline with Origin 6.0 software (Microcal, Northampton, Mass.). All experiments were carried out in duplicate or triplicate.
# Effects of Metal Ions and Reagents on PTTS Activity. The effects of metal ions and reagents were determined by examining enzyme activity in the presence of 1 mM and 10 mM metal ions or reagents under standard assay conditions (FIG. 8).
row,Molecule,inhibition of enzyme activity
1,[Ag+] [Ag^+],inhibited strongly
2,[Al+3] [Al^3+],inhibited strongly
3,[Cd+2] [Cd^2+],moderately
4,[Cu+2] [Cu^2+],moderately
5,[Hg+2] [Hg^2+],inhibited strongly
6,[Pb+2] [Pb^2+],moderately
7,CCCCCCCCCCCCOS(=O)(=O)[O-].[Na+] [SDS],inhibited strongly
8,NC(CO)(CO)CO [Tris],moderately

# Test system: not listed separately
# Assay: Enzyme assay: amount of trehalose produced from maltose by PTTS
# Format: biochemical, Picrophilus torridus
# Settings: PTTS without His-tag
# Description: as §1
# (§2) The amount of trehalose, glucose, and maltose after each enzymatic reaction was measured using a high performance liquid chromatography (HPLC) (SFD 2100) system equipped with an RI detector (Schambeck S F D, RI 2000) at a flow rate of 0.9 mL/min. A carbohydrate analysis column (HYPERSIL-100 Amino, Thermo Hypersil-Keystone) equilibrated with 75% acetonitrile, 24% Milli-Q water, and 1% formic acid was used. The retention times of glucose, maltose, and trehalose were 8.0, 11.2, and 12.5 min, respectively.
row,Molecule,specific activity relative to the recombinant His-tag fusion PTTS
1,"native PTTS: Picrophilus torridus trehalose synthase protein without the linker and hexahistidine tag (SEQ ID NO: 3) (protein, listed as Picrophilus torridus) MLDNNGLWYRDAVFYEVPVKSFYDSNNDGIGDFNGLTMKLDYLKKLGVDALWLLPFYKSPLKDDGYDISDYYSILPEYGTIDDFKNFIDTAHSMNIRVIADLVLNHVSDQHPWFIESRSSIDNPKRDWFIWSDTPEKFKEARIIFIDTEKSNWTYDPETKQYYFHRFYSSQPDLNYDNPDVRNEVKKVIRYWLDLGLDGFRADAVPYLFKRENTNCENLPETHNFFKEIRKMMDEDYPGTILLAEANQWPTETKAYFGNGDEFHMAFNFPLMPRIFIALARSDYYPIMDIIKQTLPIPDNCDWCIFLRNHDELTLEMVTDSERDIMYREYAKIPKMRLNLGIRRRLAPLADNDINTIELLNALIFSLPGTPIIYYGDEIGMGDNIYLGDRNGVRTPMQWSYDRNAGFSMADSEQLYSPVITNPNYHYESVNVEAELRLSSSLLNWMIKIIHVRKDYKELLGRGSIKFIEQGNKRVLSYIREYENQRMLCLFNLSRNPTYVELNLSDYIGLKPIEAITKAAFPRIKDDRYFITMTPRSFFWFNLIVPERDDSYDLIGED",about 1.3 fold

# Test system: recombinant PTTS
# Assay: Substrate specificity of recombinant PTTS
# Format: biochemical, Picrophilus torridus
# Settings: standard assay conditions
# Description: as §1, §2
# Substrate Specificity of Recombinant PTTS. […] It also acted on sucrose and catalyzed the formation of glucose, fructose, and trehalulose [α-D-glucopyranosyl-(1,1)-D-fructofuranose], however, the activity is quite low. In addition, it converted the α,β-1,1-trehalose to maltose, though only about 7% just as with the α,α-1,1-trehalose.
Molecule,activity of recombinant PTTS with the substance as substrate,"conversion to maltose relative to α,α-1,1-trehalose"
O=C(CO)[C@@H](O)[C@H](O)[C@H](O)CO [fructose],No detectable activities,–
O=C[C@H](O)[C@@H](O)[C@@H](O)[C@H](O)CO [galactose],No detectable activities,–
OC[C@H]1O[C@H](OC[C@H]2OC(O)(CO)[C@@H](O)[C@@H]2O)[C@H](O)[C@@H](O)[C@@H]1O (stereo partly shown) [isomaltulose],No detectable activities,–
OC[C@H]1O[C@@H](O[C@H]2[C@H](O)[C@@H](O)C(O)O[C@@H]2CO)[C@H](O)[C@@H](O)[C@H]1O (stereo partly shown) [lactose],No detectable activities,–
OC[C@H]1O[C@H](O[C@H]2[C@H](O)[C@@H](O)[C@@H](O[C@H]3[C@H](O)[C@@H](O)[C@@H](O[C@H]4[C@H](O)[C@@H](O)[C@@H](O[C@H]5[C@H](O)[C@@H](O)C(O)O[C@@H]5CO)O[C@@H]4CO)O[C@@H]3CO)O[C@@H]2CO)[C@H](O)[C@@H](O)[C@@H]1O (stereo partly shown) [maltopentose],No detectable activities,–
OC[C@H]1O[C@H](O[C@H]2[C@H](O)[C@@H](O)[C@H](O)O[C@@H]2CO)[C@H](O)[C@@H](O)[C@@H]1O [maltose],converted them to each other,–
OC[C@H]1O[C@H](O[C@H]2[C@H](O)[C@@H](O)[C@@H](O[C@H]3[C@H](O)[C@@H](O)[C@@H](O[C@H]4[C@H](O)[C@@H](O)C(O)O[C@@H]4CO)O[C@@H]3CO)O[C@@H]2CO)[C@H](O)[C@@H](O)[C@@H]1O (stereo partly shown) [maltotetraose],No detectable activities,–
OC[C@@H](O)[C@@H](O)[C@H](O)[C@@H](O)CO [sorbitol],No detectable activities,–
OC[C@H]1O[C@@](CO)(O[C@H]2O[C@H](CO)[C@@H](O)[C@H](O)[C@H]2O)[C@@H](O)[C@@H]1O [sucrose],quite low,–
"OC[C@H]1O[C@H](O[C@H]2O[C@H](CO)[C@@H](O)[C@H](O)[C@H]2O)[C@H](O)[C@@H](O)[C@@H]1O [trehalose, α-D-glucopyranosyl α-D-glucopyranoside]",converted them to each other,–
"OC[C@H]1O[C@@H](O[C@H]2O[C@H](CO)[C@@H](O)[C@H](O)[C@H]2O)[C@H](O)[C@@H](O)[C@@H]1O [α,β-1,1-trehalose]",–,about 7%
"OC[C@H]1O[C@@H](O[C@@H]2O[C@H](CO)[C@@H](O)[C@H](O)[C@H]2O)[C@H](O)[C@@H](O)[C@@H]1O [β,β-1,1-trehalose]",No detectable activities,–
maltotriose,No detectable activities,–
